Literature values, collected in patent US20150231092A1, “NOVEL EFFERVESCENT SACHET FORMULATIONS OF DAPOXETINE AND A PDE5 INHIBITOR” (Sanovell IIac Sanayi Ve Ticaret Anonim Sirketi, priority 2012, published 2015).

Legend:
[1] = following oral administration
[2] = following oral administration; remark: listed apart in the source

Row | Compound | binding to plasma proteins [1] | onset of action [2] [min] | onset of action takes (second sentence; apparently action time) [2] | solubility in water
1 | CN(C)[C@@H](CCOc1cccc2ccccc12)c1ccccc1 [dapoxetine] | almost completely binding to plasma proteins | – | – | –
2 | CN1CC(=O)N2[C@H](c3ccc4c(c3)OCO4)c3[nH]c4ccccc4c3C[C@@H]2C1=O [tadalafil, (6R-trans)-6-(1,3-benzodioxol-5-yl)-2,3,6,7,12,12a-hexahydro-2-methyl-pyrazino[1′,2′:1,6]pyrido[3,4-b]indole-1,4-dione] | – | 15 | up to 36 hours | poorly soluble in water
